Test results from patent US10487083B2, “Small molecule inhibitors of the JAK family of kinases” (Janssen Pharmaceutica NV, priority 2016, dated 2019).
Each block holds one compound with its values, some of them ahead of it.

Legend:
[1] = In vivo intracolonic (i.c.) dosing, plasma and colon concentrations (Protocol 3); design: species or system C57BL/6 mice; key to Plasma Concentration After i.c. Dosing, Mean: ^: Mean was not calculated as the values for all three mice were below the lower limit of quantitation; settings: for Plasma Concentration After i.c. Dosing, Mean: 5 mg/kg intracolonic, female C57BL/6 mice; for systemic exposure after i.c. dosing: mice
From the text: Plasma and colon concentration results were obtained by following Protocol 1 using venipuncture of dorsal metatarsal vein bleed for Compounds (B), (C), and Examples 6 and 11. Plasma and colon concentration results were obtained by following Protocol 2 using retro-orbital bleed for Compounds (A), and Examples 1, and 3-5 and Protocol 2 using venipuncture of the dorsal metatarsal vein for Examples 2, 7-10, and 12. Plasma and colon concentration results were obtained by following Protocol 3 for Examples 1, 3 and 4. These protocols are described below under the heading In vivo Studies.
Intracolonic (IC) dose group: Following anesthesia with isoflurane by inhalation, three non-fasted female C57BL/6 mice were administered the compound intracolonically through a small incision in the abdominal wall using a syringe and needle at a dose of 5 mg/kg as a solution in 20% HPβCD at a dose volume of 1 mL/kg. Blood samples were collected at 0.5, 2, and 4 h post dose via retro-orbital bleed. Blood samples were collected into tubes containing anticoagulant (Heparin-Na) and placed on wet ice. The plasma fraction was separated by centrifugation and frozen at −20° C. for up to 4 h and −80° C. after 4 h unless analyzed shortly after sample collection. Colon samples were collected at 4 h post dose. From 2 cm below the cecum, a 4-cm sample of the colon was dissected, cut open on the longitudinal axis, and the solid contents removed by flushing with 2 mL of saline. The colon was further washed by putting it in 5 mL of saline and shaken for 5 seconds. The colon sample was then patted dry, weighed, and homogenized as 1 part tissue (g) to 4 parts HPLC grade water (mL). Concentrations of the compound in plasma and colon homogenate were determined using a qualified liquid chromatography-triple quadrupole mass spectrometry (LC-MS/MS) method. This protocol was used to evaluate IC dosing of the following test compounds: Examples 1, 3, and 4.

[2] = Physical stability of crystalline embodiments of compound Ex. 1 (HT-XRPD/HR-XRPD after exposure); type: physicochemical; settings: for physical stability after exposure to AAC: AAC 40° C./70% RH, two days; for physical stability in climate chamber: four days, HR-XRPD
Procedure: Long term slurry experiments were performed by suspending compound embodiment 1s in twenty neat solvents and stirred at room temperature for two weeks and at 50° C. for one week. Upon completion of the equilibration time, the residual solids were separated from the mother liquors. The solids were dried under ambient conditions and dried under vacuum (5 mBar) before being analyzed by HT-XRPD. Subsequently, the solids were exposed to accelerated aging conditions (40° C./70% relative humidity) for two days and again analyzed by HT-XRPD.
Embodiment 1s converted to hydrated embodiment 10 when it was exposed to 100% RH at 25° C. […] This behavior is attributable to an unequally strong binding of all the hydration/solvation molecules. In this case, embodiment 10 would have a less strongly bound second water molecule that would be lost under ambient conditions. More precisely, the physical stability of embodiment 1s was investigated in climate chambers by exposing a 20 mg sample of such embodiment to 40° C. and 70% relative humidity for four days, and another 20 mg sample of the same embodiment was exposed also for four days to 25° C. and 100% relative humidity. After four days, the various solid samples were analyzed by HR-XRPD, the crystal cell parameters were determined and the diffractograms were indexed. From bottom to top, the first diffractogram in FIG. 6 corresponds to embodiment 1s as starting material, and the second corresponds to the same form after a 4-day exposure to 40° C. and 70% relative humidity, noted as “1s 70 RH” in the same figure. […] Indexing for such form was not possible due to the small amount in which it was present. The third diffractogram corresponds to embodiment 1s after a 4-day exposure to 25° C. and 100% relative humidity, noted as “10” in the same figure. […] Upon dehydration, both embodiments is and 10 re-crystallized to the anhydrous form with a melting point of 148° C.

[3] = MDCK-MDR1 permeability assay; type: in vitro ADME; settings: MDCK-MDR1, pH 7.4; @ 5 μM, with P-gp inhibitor elacridar (2 μM); read-out: MDCK-MDR1 P^eapp(A-B)
Procedure: Permeability measurements were conducted according to the Cyprotex protocol using the MDCK-MDR1 cell line obtained from the NIH (Rockville, Md., USA). […] The cells in this assay form a cohesive sheet of a single cell layer filing the surface area of the culture dish, also known as a confluent monolayer, and on day four the test compound was added to the apical side of the membrane and the transport of the compound across the monolayer was monitored over a time period of 60 min.
Test compounds were dissolved in DMSO at a concentration of 10 mM. The dosing solutions were prepared by diluting test compound with assay buffer (Hanks Balanced Salt Solution), pH 7.4, at a final concentration of 5 μM. For assessment of apical to basolateral (“A-B”) permeability, buffer was removed from the apical compartment and replaced with test compound dosing solution with or without the permeability glycoprotein (“PgP”, “P-gP”, “Pgp” or “P-gp”) inhibitor elacridar (2 μM). For assessment of basolateral to apical (“B-A”) permeability, buffer was removed from the companion plate and replaced with test compound dosing solution. […] The permeability coefficient (Papp) for each compound was calculated from the following equation: Papp=(dQ/dt)/(C0×S), where dQ/dt is the rate of permeation of the drug across the cells, C0 is the donor compartment concentration at time zero, and S is the area of the cell monolayer. […]

[4] = In vivo oral (p.o.) dosing, plasma and colon concentrations (Protocols 1 and 2); settings: 25 mg/kg p.o., female C57BL/6 mice
Procedure: These protocols are described below under the heading In vivo Studies.
Three non-fasted female C57BL/6 mice were orally administered test compound at a dose of 25 mg/kg p.o. as a solution in 20% hydroxypropyl-beta-cyclodextrin (HPβCD) at a dose volume of 5 mL/kg. Blood samples were collected at 0.5, 2, and 4 h post dose via retro-orbital bleed or venipuncture of the dorsal metatarsal vein. Blood samples were collected into tubes containing anticoagulant (Heparin-Na) and placed on wet ice. The plasma fraction was separated by centrifugation and frozen at −20° C. for up to 4 h and −80° C. after 4 h unless analyzed shortly after sample collection. Colon samples were collected at 4 h post dose. […] Concentrations of the compound in plasma and colon homogenate were determined using a qualified liquid chromatography-triple quadrupole mass spectrometry (LC-MS/MS) method.
Three non-fasted female C57BL/6 mice were orally administered test compound at a dose of 25 mg/kg p.o. as a solution in 20% HPβCD at a dose volume of 5 mL/kg. […] The plasma fraction was separated by centrifugation and frozen at −20° C. for up to 4 h and −80° C. after 4 h unless analyzed shortly after sample collection. […] Concentrations of the compound in plasma and colon homogenate were determined using a qualified liquid chromatography-triple quadrupole mass spectrometry (LC-MS/MS) method.

SMILES: N#CC[C@H]1CC[C@H](n2c(CC(=O)NCC3CC3)nc3cnc4[nH]ccc4c32)CC1 [Ex. 3, 2-(1-((1r,4r)-4-(Cyanomethyl)cyclohexyl)-1,6-dihydroimidazo[4,5-d]pyrrolo[2,3-b]pyridin-2-yl)-N-(cyclopropylmethyl)acetamide]
Plasma Concentration After i.c. Dosing, Mean ([1]; Time = 2 h): ^ | Plasma Concentration After i.c. Dosing, Mean ([1]; Time = 4 h): ^ | systemic exposure after i.c. dosing [1]: low systemic exposures

SMILES: CC(C)(O)CNC(=O)Cc1nc2cnc3[nH]ccc3c2n1[C@H]1CC[C@H](CC#N)CC1 [Embodiment 4]
physical stability under ambient conditions [2]: did not appear to be physically stable

SMILES: CC(C)(O)CNC(=O)Cc1nc2cnc3[nH]ccc3c2n1[C@H]1CC[C@H](CC#N)CC1 [Embodiment 6]
physical stability after exposure to AAC [2]: stable solid form

SMILES: N#CCCNC(=O)Cc1nc2cnc3[nH]ccc3c2n1[C@H]1CC[C@H](CC#N)CC1 [Ex. 4, N-(2-Cyanoethyl)-2-(1-((1r,4r)-4-(cyanomethyl)cyclohexyl)-1,6-dihydroimidazo[4,5-d]pyrrolo[2,3-b]pyridin-2-yl)acetamide]
Plasma Concentration After i.c. Dosing, Mean ([1]; Time = 4 h): ^ | systemic exposure after i.c. dosing [1]: low systemic exposures

SMILES: CC(C)(O)CNC(=O)Cc1nc2cnc3[nH]ccc3c2n1[C@H]1CC[C@H](CC#N)CC1 [Ex. 1, 2-(1-((1r,4r)-4-(Cyanomethyl)cyclohexyl)-1,6-dihydroimidazo[4,5-d]pyrrolo[2,3-b]pyridin-2-yl)-N-(2-hydroxy-2-methylpropyl)acetamide]
Plasma Concentration After i.c. Dosing, Mean ([1]; Time = 2 h): ^ | Plasma Concentration After i.c. Dosing, Mean ([1]; Time = 4 h): ^ | systemic exposure after i.c. dosing [1]: low systemic exposures

SMILES: CC(C)(O)CNC(=O)Cc1nc2cnc3[nH]ccc3c2n1[C@H]1CC[C@H](CC#N)CC1 [Embodiment 7]
physical stability after exposure to AAC [2]: physically stable

SMILES: C[C@@H](O)c1nc2cnc3[nH]ccc3c2n1[C@H]1CC[C@H](CC#N)CC1 [C]
Papp A→B [3]: 2.5 ×10⁻⁶ cm/s

SMILES: CC(C)(O)CNC(=O)Cc1nc2cnc3[nH]ccc3c2n1[C@H]1CC[C@H](CC#N)CC1 [Embodiment 5]
physical stability after exposure to AAC [2]: physically unstable

Now from value to compound, other results behind:

physical stability under ambient conditions [2]: physically not stable
SMILES: CC(C)(O)CNC(=O)Cc1nc2cnc3[nH]ccc3c2n1[C@H]1CC[C@H](CC#N)CC1 [embodiment 10]

physical stability in climate chamber ([2]; 40° C. and 70% relative humidity): initial embodiment 1s had been recovered
SMILES: CC(C)(O)CNC(=O)Cc1nc2cnc3[nH]ccc3c2n1[C@H]1CC[C@H](CC#N)CC1 [embodiment 1s]
physical stability in climate chamber ([2]; 25° C. and 100% relative humidity): conversion of embodiment 1s into embodiment 10

physical stability after exposure to AAC [2]: converted to embodiment 3e
SMILES: CC(C)(O)CNC(=O)Cc1nc2cnc3[nH]ccc3c2n1[C@H]1CC[C@H](CC#N)CC1 [embodiment 2]

Plasma Concentration After p.o. Dosing, Mean ([4]; Time = 2 h): ^ | Plasma Concentration After p.o. Dosing, Mean ([4]; Time = 4 h): ^
SMILES: N#CC[C@H]1CC[C@H](n2c(CC(=O)Nc3cc[nH]n3)nc3cnc4[nH]ccc4c32)CC1 [Ex. 11, 2-(1-((1r,4r)-4-(Cyanomethyl)cyclohexyl)-1,6-dihydroimidazo[4,5-d]pyrrolo[2,3-b]pyridin-2-yl)-N-(1H-pyrazol-3-yl)acetamide]
